Measured values from patent EP0432983A2 (priority 1989, dated 1991).
Converted amounts (≈) assume the structure as drawn.

Columns and labels:
[1] = tested on: MCF-7 (human breast carcinoma); test: General anti-tumour assay, MCF-7; assay type: cell-based
Method: (§1) With compounds AH-3, AH-4 and AH-5, four general anti-tumour assays and two cytotoxicity assays were performed. Current screening protocols were employed using test substance diluted as above and at varying concentrations. Tests were performed against the tumour cells P-388 (mouse DBA/2 lymphoid neoplasm), A-549 (human lung carcinoma), HT-29 (human colon carcinoma) and MCF-7 (human breast carcinoma) and for the cytotoxicity assays against CV-1 (monkey kidney fibroblast) and BHK (Hamster kidney fibroblast).
(§2) Scoring is performed as follows: (-) no activity - the number of cells is equal to the control of growth, 0-40% cell inhibition (+) low activity - numbers of cells are reduced by approx 50-60% (++) good activity - numbers of cells are reduced by approx 70-90% (+++) very good activity - there is 100% cell inhibition [(+) is the approximate IC₅₀]

[2] = tested on: VSV (Vesicular Stomatitis Virus); test: microbe, parasite or virus in culture; assay type: cell-based; details: BHK, read-out: IC50 µg/ml approx
[3] = tested on: BHK (Hamster kidney fibroblast); test: Cytotoxicity assay, BHK; assay type: cell-based
Method: as §1, §2

[4] = tested on: CV-1 (monkey kidney fibroblast); test: Cytotoxicity assay, CV-1; assay type: cell-based
Method: as §1, §2

[5] = tested on: HT-29 (human colon carcinoma); test: General anti-tumour assay, HT-29; assay type: cell-based
Method: as §1, §2

[6] = tested on: P-388 (mouse DBA/2 lymphoid neoplasm); test: General anti-tumour assay, P-388; assay type: cell-based
Method: as §1, §2

[7] = tested on: HSV-1 (herpes simplex virus, type 1); test: General anti-viral assay, HSV-1 in CV-1 cells (plaque reduction); assay type: cell-based; details: Human alphaherpesvirus 1, CV-1, read-out: IC50 µg/ml approx
[8] = tested on: A-549 (human lung carcinoma); test: General anti-tumour assay, A-549; assay type: cell-based
Method: as §1, §2

SMILES: CC(C)=CC(=O)CC(C)C1CCC(C)c2c1cc(C)c1c2OCO1 (stereo not drawn) [AH-3, Helioporin C]
- IC50 ([1]; Homo sapiens, MCF7, MCF-7, read-out: IC50 µg/ml approx): ~5 µg/mL (≈ 15.2 µM)
- activity (cell inhibition) ([1]; MCF-7, TEST CONC (µg) 0.2): - ((-) no activity - the number of cells is equal to the control of growth, 0-40% cell inhibition)
- activity (cell inhibition) ([1]; MCF-7, TEST CONC (µg) 0.5): - ((-) no activity - the number of cells is equal to the control of growth, 0-40% cell inhibition)
- activity (cell inhibition) ([1]; MCF-7, TEST CONC (µg) 1): - ((-) no activity - the number of cells is equal to the control of growth, 0-40% cell inhibition)
- activity (cell inhibition) ([1]; MCF-7, TEST CONC (µg) 2): - ((-) no activity - the number of cells is equal to the control of growth, 0-40% cell inhibition)
- activity (cell inhibition) ([1]; MCF-7, TEST CONC (µg) 5): + ((+) low activity - numbers of cells are reduced by approx 50-60%)
- activity (cell inhibition) ([1]; MCF-7, TEST CONC (µg) 10): ++ ((++) good activity - numbers of cells are reduced by approx 70-90%)
- activity (cell inhibition) ([1]; MCF-7, TEST CONC (µg) 20): +++ ((+++) very good activity - there is 100% cell inhibition)
- IC50 [2]: > 40 µg/mL
- IC50 ([3]; Mesocricetus auratus, read-out: IC50 µg/ml approx): ~1 µg/mL (≈ 3.04 µM)
- activity (cell inhibition) ([3]; TEST CONC (µg) 0.2): - ((-) no activity - the number of cells is equal to the control of growth, 0-40% cell inhibition)
- activity (cell inhibition) ([3]; TEST CONC (µg) 0.5): - ((-) no activity - the number of cells is equal to the control of growth, 0-40% cell inhibition)
- activity (cell inhibition) ([3]; TEST CONC (µg) 1): + ((+) low activity - numbers of cells are reduced by approx 50-60%)
- activity (cell inhibition) ([3]; TEST CONC (µg) 2): +++ ((+++) very good activity - there is 100% cell inhibition)
- activity (cell inhibition) ([3]; TEST CONC (µg) 5): +++ ((+++) very good activity - there is 100% cell inhibition)
- activity (cell inhibition) ([3]; TEST CONC (µg) 10): +++ ((+++) very good activity - there is 100% cell inhibition)
- activity (cell inhibition) ([3]; TEST CONC (µg) 20): +++ ((+++) very good activity - there is 100% cell inhibition)
- cytotoxicity (inhibition zone on the cell sheet) (BHK cells): 0-
- activity (cell inhibition) ([4]; CV-1, TEST CONC (µg) 0.2): - ((-) no activity - the number of cells is equal to the control of growth, 0-40% cell inhibition)
- activity (cell inhibition) ([4]; CV-1, TEST CONC (µg) 0.5): - ((-) no activity - the number of cells is equal to the control of growth, 0-40% cell inhibition)
- activity (cell inhibition) ([4]; CV-1, TEST CONC (µg) 1): - ((-) no activity - the number of cells is equal to the control of growth, 0-40% cell inhibition)
- activity (cell inhibition) ([4]; CV-1, TEST CONC (µg) 2): - ((-) no activity - the number of cells is equal to the control of growth, 0-40% cell inhibition)
- activity (cell inhibition) ([4]; CV-1, TEST CONC (µg) 5): - ((-) no activity - the number of cells is equal to the control of growth, 0-40% cell inhibition)
- activity (cell inhibition) ([4]; CV-1, TEST CONC (µg) 10): ++ ((++) good activity - numbers of cells are reduced by approx 70-90%)
- activity (cell inhibition) ([4]; CV-1, TEST CONC (µg) 20): +++ ((+++) very good activity - there is 100% cell inhibition)
- IC50 ([4]; Primates, CV-1, read-out: IC50 µg/ml approx): 5 to 10 µg/mL (≈ 15.2 to 30.4 µM)
- activity (cell inhibition) ([5]; HT-29, TEST CONC (µg) 0.2): - ((-) no activity - the number of cells is equal to the control of growth, 0-40% cell inhibition)
- activity (cell inhibition) ([5]; HT-29, TEST CONC (µg) 0.5): - ((-) no activity - the number of cells is equal to the control of growth, 0-40% cell inhibition)
- activity (cell inhibition) ([5]; HT-29, TEST CONC (µg) 1): - ((-) no activity - the number of cells is equal to the control of growth, 0-40% cell inhibition)
- activity (cell inhibition) ([5]; HT-29, TEST CONC (µg) 2): + ((+) low activity - numbers of cells are reduced by approx 50-60%)
- activity (cell inhibition) ([5]; HT-29, TEST CONC (µg) 5): ++ ((++) good activity - numbers of cells are reduced by approx 70-90%)
- activity (cell inhibition) ([5]; HT-29, TEST CONC (µg) 10): +++ ((+++) very good activity - there is 100% cell inhibition)
- activity (cell inhibition) ([5]; HT-29, TEST CONC (µg) 20): +++ ((+++) very good activity - there is 100% cell inhibition)
- IC50 ([5]; Homo sapiens, HT-29, read-out: IC50 µg/ml approx): ~2 µg/mL (≈ 6.09 µM)
- IC50 ([6]; Mus musculus, P388, P-388, read-out: IC50 µg/ml approx): ~1 µg/mL (≈ 3.04 µM)
- activity (cell inhibition) ([6]; P-388, TEST CONC (µg) 0.2): - ((-) no activity - the number of cells is equal to the control of growth, 0-40% cell inhibition)
- activity (cell inhibition) ([6]; P-388, TEST CONC (µg) 0.5): - ((-) no activity - the number of cells is equal to the control of growth, 0-40% cell inhibition)
- activity (cell inhibition) ([6]; P-388, TEST CONC (µg) 1): + ((+) low activity - numbers of cells are reduced by approx 50-60%)
- activity (cell inhibition) ([6]; P-388, TEST CONC (µg) 2): ++ ((++) good activity - numbers of cells are reduced by approx 70-90%)
- activity (cell inhibition) ([6]; P-388, TEST CONC (µg) 5): +++ ((+++) very good activity - there is 100% cell inhibition)
- activity (cell inhibition) ([6]; P-388, TEST CONC (µg) 10): +++ ((+++) very good activity - there is 100% cell inhibition)
- activity (cell inhibition) ([6]; P-388, TEST CONC (µg) 20): +++ ((+++) very good activity - there is 100% cell inhibition)
- IC50 [7]: ~40 µg/mL (≈ 122 µM)
- activity (cell inhibition) ([8]; A-549, TEST CONC (µg) 0.2): - ((-) no activity - the number of cells is equal to the control of growth, 0-40% cell inhibition)
- activity (cell inhibition) ([8]; A-549, TEST CONC (µg) 0.5): - ((-) no activity - the number of cells is equal to the control of growth, 0-40% cell inhibition)
- activity (cell inhibition) ([8]; A-549, TEST CONC (µg) 1): - ((-) no activity - the number of cells is equal to the control of growth, 0-40% cell inhibition)
- activity (cell inhibition) ([8]; A-549, TEST CONC (µg) 2): - ((-) no activity - the number of cells is equal to the control of growth, 0-40% cell inhibition)
- activity (cell inhibition) ([8]; A-549, TEST CONC (µg) 5): + ((+) low activity - numbers of cells are reduced by approx 50-60%)
- activity (cell inhibition) ([8]; A-549, TEST CONC (µg) 10): +++ ((+++) very good activity - there is 100% cell inhibition)
- activity (cell inhibition) ([8]; A-549, TEST CONC (µg) 20): +++ ((+++) very good activity - there is 100% cell inhibition)
- IC50 ([8]; Homo sapiens, A549, A-549, read-out: IC50 µg/ml approx): ~5 µg/mL (≈ 15.2 µM)
